The record followed here is PubChem BioAssay (NCI).

Each structure is given as a SMILES string.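 Cultured in 96-well plates, cells were exposed to test compound for 48 hours across five concentrations. GI50 is the concentration that inhibits growth by half. The concentration for full growth arrest is given as TGI.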 Where only a bound is given, the exact number is not on record here.

Test systems include HCT-15 colon; MALME-3M melanoma; A498 renal; UACC-257 melanoma; HT29 colon; SK-MEL-2 melanoma; HOP-62 NSCLC; A549 NSCLC.
Test in all cases: growth of human tumour cells (NCI), 48 h

Take `OC1=CN=COc2ccccc21`: the TGI in the assay on HCT-15 colon, in the assay with MALME-3M melanoma, in the assay on A498 renal, with UACC-257 melanoma, with HT29 colon and in the assay with SK-MEL-2 melanoma was more than 100 µM throughout. Moreover, the TGI in the assay on HOP-62 NSCLC and in the assay on A549 NSCLC was more than 100 µM each time.
With `CCCCCCC(O)CC[C@H]1CCC[C@@H](C)N1` (stereo partly specified), the TGI is more than 31.6 µM in the assay with HCT-15 colon; more than 100 µM with MALME-3M melanoma; more than 10 µM with A498 renal; less than 10 µM with UACC-257 melanoma; more than 31.6 µM in the assay with HT29 colon; less than 10 µM in the assay on SK-MEL-2 melanoma. For the same compound, the TGI was more than 31.6 µM in the assay on HOP-62 NSCLC and more than 100 µM in the assay with A549 NSCLC.
`CCC1=CCN(c2cc(C)ccn2)OC1c1ccccc1` (stereo unspecified): the TGI in the assay with HCT-15 colon is more than 100 µM; in the assay with MALME-3M melanoma, 80.8 µM; in the assay with UACC-257 melanoma, more than 100 µM; with HT29 colon, more than 100 µM; in the assay with SK-MEL-2 melanoma it was 43.7 µM; in the assay with HOP-62 NSCLC, more than 100 µM. This compound also had a TGI in the assay with A549 NSCLC of more than 100 µM.
Turning to `COC(=O)C(C(=O)C(=O)Nc1ccc(C)cc1C)c1csc(-n2nc(-c3ccccc3)cc2-c2ccccc2)n1` (stereo unspecified), the TGI in the assay with HCT-15 colon, with MALME-3M melanoma, in the assay with A498 renal, in the assay on UACC-257 melanoma, in the assay with HT29 colon and with HOP-62 NSCLC was more than 100 µM in each case. For the same compound, the TGI in the assay with A549 NSCLC was more than 100 µM.
Consider `CC1(C)COC2C(N(Cc3ccccc3)Cc3ccccc3)C(=O)N21` (stereo unspecified), for which the TGI with HCT-15 colon, in the assay with MALME-3M melanoma, in the assay on A498 renal, with UACC-257 melanoma, with HT29 colon and in the assay with HOP-62 NSCLC was more than 100 µM in each case. Also, the TGI with A549 NSCLC is more than 100 µM.
With `CC1=Nc2ccccc2SC(c2c(Cl)cccc2Cl)C1` (stereo unspecified), the TGI with HCT-15 colon turned out to be 2.57 µM; in the assay with MALME-3M melanoma it was 3.29 µM; with A498 renal, 3.74 µM; in the assay with UACC-257 melanoma, 3.3 µM; with HT29 colon, 1.57 µM; in the assay with HOP-62 NSCLC it was 3.76 µM. For the same compound, the TGI in the assay on A549 NSCLC was determined as 4.43 µM.
As for `CN/N=C(/c1nc2ccc([N+](=O)[O-])cc2[nH]c1=O)C(O)c1ccc(C(O)/C(=N\NC)c2nc3ccc([N+](=O)[O-])cc3[nH]c2=O)cc1` (stereo unspecified), the TGI in the assay on HCT-15 colon, with MALME-3M melanoma, with A498 renal, in the assay on UACC-257 melanoma, in the assay on HT29 colon and in the assay with SK-MEL-2 melanoma was more than 100 µM throughout. The TGI in the assay on HOP-62 NSCLC and with A549 NSCLC was more than 100 µM in each case.
In the case of `C#CCN(N=O)C(=O)ON1C(=O)CCC1=O`, the TGI in the assay on HCT-15 colon, with MALME-3M melanoma, in the assay on A498 renal, in the assay on UACC-257 melanoma, in the assay on HT29 colon and in the assay with SK-MEL-2 melanoma was more than 100 µM in each case. Also, the TGI with HOP-62 NSCLC and in the assay with A549 NSCLC was more than 100 µM in each case.
On to `O=C1CCC2(c3ccccc3)Nc3ccccc3N12` (stereo unspecified), for which the TGI with HCT-15 colon, in the assay with MALME-3M melanoma, with A498 renal, in the assay with UACC-257 melanoma, in the assay with HT29 colon and in the assay with SK-MEL-2 melanoma was more than 100 µM each time. Besides, the TGI in the assay with HOP-62 NSCLC and in the assay with A549 NSCLC was more than 100 µM throughout.
In the case of `O=C1c2ccccc2C(=O)C12CCc1ccccc12`, the TGI in the assay with HCT-15 colon, in the assay with MALME-3M melanoma, with HT29 colon, in the assay with HOP-62 NSCLC and with A549 NSCLC was more than 100 µM in each case.
Regarding `COc1cc2c(c3c1c(=O)c1ccccc1n3C)C=CC(C)(C)O2`, the TGI in the assay with HCT-15 colon, in the assay with MALME-3M melanoma, in the assay with UACC-257 melanoma, with HT29 colon, in the assay on SK-MEL-2 melanoma and in the assay on HOP-62 NSCLC was more than 100 µM in each case. For the same compound, in the assay on A549 NSCLC, the TGI was more than 100 µM.
In the case of `C=C1C(=O)C23[C@H](O)C1CC[C@H]2[C@]12COC3(O)[C@@H](O)[C@@H]1C(C)(C)CC[C@@H]2O`, the TGI with HCT-15 colon came to 15.9 µM; in the assay with MALME-3M melanoma, 6.94 µM; in the assay on A498 renal it was 22.7 µM; with UACC-257 melanoma, 29.5 µM; in the assay on HT29 colon, 36.6 µM; in the assay on SK-MEL-2 melanoma it was 11 µM. Besides, the TGI amounted to 36.1 µM in the assay on HOP-62 NSCLC and 44.7 µM in the assay on A549 NSCLC.
As to `CN(C)C(=S)/N=c1\ssc(=S)n1C`, the TGI in the assay with HCT-15 colon, in the assay on MALME-3M melanoma, with A498 renal, in the assay on UACC-257 melanoma, with HT29 colon and in the assay with SK-MEL-2 melanoma was more than 100 µM throughout. In addition, the TGI in the assay on HOP-62 NSCLC and with A549 NSCLC was more than 100 µM each time.
On to `CN(C)c1ccc(/C=C(\NC(=O)c2ccccc2)c2nc3ccc4c(c3[nH]2)C(=O)c2ccccc2C4=O)cc1`, for which the TGI with HCT-15 colon, in the assay with MALME-3M melanoma, in the assay on A498 renal, in the assay with UACC-257 melanoma, with HT29 colon and in the assay with SK-MEL-2 melanoma was more than 100 µM each time. Also, the TGI in the assay with HOP-62 NSCLC and in the assay on A549 NSCLC was more than 100 µM each time.
In the case of `COc1ccc(/C=C(\NC(=O)c2ccccc2)c2nc3ccccc3[nH]2)cc1OC`, the TGI in the assay on HCT-15 colon, in the assay on MALME-3M melanoma, in the assay with A498 renal, in the assay with UACC-257 melanoma, in the assay with HT29 colon and in the assay with SK-MEL-2 melanoma was more than 100 µM each time. The TGI in the assay with HOP-62 NSCLC and in the assay on A549 NSCLC was more than 100 µM each time.
As to `CC(=O)OC(C(=O)[O][Sn]([CH3])([CH3])[CH3])c1ccccc1` (stereo unspecified), the GI50 in the assay with HCT-15 colon, in the assay with MALME-3M melanoma, in the assay with A498 renal, in the assay on UACC-257 melanoma, with HT29 colon and with HOP-62 NSCLC was more than 100 µM in each case. In addition, the GI50 in the assay on A549 NSCLC is more than 100 µM. Also, the TGI with HCT-15 colon, in the assay on MALME-3M melanoma, in the assay with A498 renal, with UACC-257 melanoma, with HT29 colon and in the assay on HOP-62 NSCLC was more than 100 µM in each case. In the assay on A549 NSCLC, this compound registered a TGI of more than 100 µM.
